{"source": "paper PMC2568955", "about": "“Structures of SRP54 and SRP19, the Two Proteins that Organize the Ribonucleic Core of the Signal Recognition Particle from Pyrococcus furiosus” (PLoS ONE, 2008)", "target": "T1, Pfu-SRP54 (Pyrococcus furiosus, UniProt Q8U070)", "T1 construct": "full-length, pET28b, thrombin-cleavable His6 tag removed, E. coli BL21(DE3)-Rosetta2; free of SRP RNA and SRP19; two monomers per asymmetric unit (non-crystallographic dimer); finger loop L346-I365 disordered", "T1 sequence (Q8U070 1-443)": "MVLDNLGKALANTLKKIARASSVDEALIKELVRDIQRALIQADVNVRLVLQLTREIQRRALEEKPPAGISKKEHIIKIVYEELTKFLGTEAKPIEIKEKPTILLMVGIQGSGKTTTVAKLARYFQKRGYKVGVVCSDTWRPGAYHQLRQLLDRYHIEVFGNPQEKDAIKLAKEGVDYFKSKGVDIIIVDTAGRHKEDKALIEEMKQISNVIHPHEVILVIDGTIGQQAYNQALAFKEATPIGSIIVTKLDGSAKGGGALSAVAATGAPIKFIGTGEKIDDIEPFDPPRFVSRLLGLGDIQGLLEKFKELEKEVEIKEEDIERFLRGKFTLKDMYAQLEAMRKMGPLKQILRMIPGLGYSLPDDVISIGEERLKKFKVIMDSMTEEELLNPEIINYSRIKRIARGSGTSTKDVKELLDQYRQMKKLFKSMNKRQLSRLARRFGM", "test": "X-ray crystal structure, […] Å", "type": "binding", "settings": "co-crystallised with 10 mM GDP; 1.0-1.3 M lithium sulfate, 100 mM sodium acetate pH 5.0; room temperature; GTPase active site in G domain, no clear Mg ion"}
{"smiles": "Nc1nc2c(ncn2[C@@H]2O[C@H](COP(=O)(O)OP(=O)(O)O)[C@@H](O)[C@H]2O)c(=O)[nH]1", "note": "[GDP]", "values": [{"measurement": "X-ray crystal structure, 2.5 Å", "value": "Pfu-SRP54 was co-crystallized in presence of GDP, and the nucleotide is clearly identified"}]}
